Data: patent US5281738A, “bis[4-(2,6-di-alkyl)phenol]silane derivatives as antiatherosclerotic agents” (Merrell Dow Pharmaceuticals Inc., priority 1992, dated 1994)

Tested on: human LDL (LDL lipid peroxidation)
Experiment: Inhibition of LDL lipid peroxidation (cupric sulfate-induced, thiobarbituric acid assay)
Type: biochemical
Conditions: 250 μg human LDL, compound preincubated 30 min at 42 °C, cupric sulfate 12.5 μM final, 37 °C, 2.5 hours, read-out: ID50 (concentration of test compound required to inhibit 50% of LDL lipid peroxidation)
Description: The degree of inhibition of LDL lipid peroxidation was determined by the method of Yagi et al. [Vitamins 39, 105 (1968)].
A 0.5 mL solution containing 250 micrograms (μg) of human LDL was incubated with the test compound, in amounts varying from 0 to 30 μg, for 30 minutes at 42° C. To this mixture was added 1 mL of a cupric sulfate solution (final concentration 12.5 μM) and the mixture was incubated at 37° C. for 2.5 hours. The amount of peroxidation of LDL lipid was determined by the thiobarbituric acid assay. The concentration of test compound required to inhibit 50% of LDL lipid peroxidation (ID50) was determined.

CC(C)(C)c1cc(SC[Si](C)(C)CSc2cc(C(C)(C)C)c(O)c(C(C)(C)C)c2)cc(C(C)(C)C)c1O [Compound A, 4,4'-[(Dimethylsilylene)bis(methylenethio)]-bis[2,6-di-t-butyl]phenol]
IC50: 9.5 µM
